# In patent publication US20080131420A1, “METHODS AND COMPOSITIONS FOR TREATING MUCOSAL INFLAMMATION” (Accentia, Inc., priority 2006, published 2008):
# “Also recorded” adds a separate entry of the source.
# Assays:
# Type in all cases: cell-based
# [1] = test system: Alternaria alternata; experiment: Inhibition of Alternaria alternata in RPMI-1640 broth tubes, visual growth rating 0-4 (Example 2); conditions: spiked, 48 hours at 30-35°
# Description: Amphotericin-B and Parabens (methylparaben and propylparaben) were tested for their ability to inhibit the fungus Alternaria alternata. Samples were stored at 2-8° C. prior to use.
# Prepared an inoculating culture of Alternaria alternata by placing an ATCC pellet in 5 mL phosphate buffer, after dissolution spread the broth and dissolved pellet over the surface of a PDA plate using a FIG. 8 motion. The inoculum plate was incubated for five days at 20-25° C.
# After the five day incubation period, 3 ml of modified phosphate buffer was used to wet the surface growth of the PDA plate. The surface of the culture was washed with the buffer using a sterile spreader stick. After washing, a 10 mL pipette was used to remove as much of the wash as is possible without picking up any agar. The wash was pipetted into a sterile culture tube.
# Serial dilutions of the wash modified phosphate buffer were performed using modified phosphate buffer to determine the dilution that yields a mold population of 10^6 per mL. The dilutions were done by pipetting 1 mL of each dilution of the wash into molten potato dextrose agar plates pH 3.5 in quadruplicate, incubating at 20-25° C. for five days, assuring that there are not mixed cultures, and then counting the colonies on the plates. The correct dilution yielded counts of 30-300 CFU's. To maintain the correct dilution for inoculation, all dilutions were refrigerated at 2-8° C. until needed. […] A 0.1 mL aliquot of this dilution was used to inoculate the inhibition culture tubes.
# Twelve sterile test tubes were prepared with 9 mL Modified Synthetic Medium RPMI-1640 broth that has been tempered in a 45-50° C. water bath and labeled as follows: Amphotericin B neg. control, Ampho-B 100 spike, Ampho-B 2 spike, Ampho-B 1 spike, Ampho-B 0.5 spike, Paraben neg. control, Paraben 400/100 spike, Paraben 300/75 spike, Paraben 200/50 spike, Paraben 100/25 spike, Pos. control, Neg control.
# An Amphotericin-B suspension was prepared by placing in suspension 10 mg of Amphotericin-B in 10 mL in modified phosphate buffer. The sample was mixed by vortex for 30 seconds. […]
# Control samples, Amphotericin B and Parabens dilutions were all prepared from the stock solutions. To all tube labeled “spike” and positive control, 0.1 mL of the inoculated buffer was added and determined to yield […]. […] The growth in each tube was recorded visually, on a 0-4 scale: 0: no growth observed, 1: slight growth or ˜25% of the growth control, 2: prominent growth or ˜50% of the growth control, 3: slight reduction in growth or ˜75% of the growth control, and 4: no reduction in growth or 100% of the growth control. […]
# [2] = test system: Alternaria alternata; experiment: Antifungal Efficacy, sample diluted and plated, plates read for mold growth (Example 1); conditions: 100% sample; diluted and plated at 1, 4, 24 and 48 hours of incubation; plate read on days 2, 3 and 5
# Description: SINOFRESH Essential Nasal Cleansing Formula, which included cetylpyridinium chloride (CPC) at 0.02% and benzalkonium chloride (BKC) at 0.005%, was tested for its ability to inhibit Alternaria alternata, a fungus typically associated with non-invasive fungus-induced rhinosinusitis. Minimum Inhibitory Concentration (MIC), Antifungal Efficacy, and Selective Agar Streak were all determined, and met the pre-defined acceptance criteria that the negative control test tube had to remain free of growth throughout the study, while the positive control tube had to retain growth throughout the study. No deviations were noted during the study.
# A 100% sample of 0.02% cetylpyridinium chloride was tested for antifungal efficacy. At 1, 4, 24, and 48 hours of incubation, the sample was diluted and plated. On days 2, 3, and 5, the plate was read.
# [3] = test system: Alternaria alternata; experiment: Cylinder Agar Plate Assay (Example 3)
# Description: Cetyl pyridinium chloride (CPC) and benzalkonium chloride (BKC) were both independently tested to determine their efficacy of inhibiting Alternaria alternata, a fungus typically associated with non-invasive fungus-induced rhinosinusitis. An in vitro test of the efficacy of BKC and CPC in combination was also completed against Alternaria alternata.
# Five concentrations of BKC and CPC were independently tested against Alternaria alternata in a cylinder Agar Plate Assay. The CPC concentrations were 0.005%, 0.01%, 0.05%, 0.25% and 1.0%, whereas the BKC concentrations were 0.00025%, 0.001%, 0.005%, 0.025%, and 0.1%. These concentrations were chosen to include the concentrations in the SINOFRESH product as well as two concentrations above and two concentrations below the SINOFRESH product.
# Five concentrations of a combination of BKC and CPC were independently tested against Alternaria alternata in a cylinder Agar Plate Assay. The concentrations were as follows:
# Five concentrations of the SINOFRESH product were also subjected to the same Agar Plate Assay, with the same concentrations of BKC and CPC.
molecule,measurement,setting,value
C[C@@H]1[C@H](O)[C@@H](C)/C=C/C=C/C=C/C=C/C=C/C=C/C=C/[C@H](O[C@@H]2O[C@H](C)[C@@H](O)[C@H](N)[C@@H]2O)C[C@@H]2O[C@](O)(C[C@@H](O)C[C@@H](O)[C@H](O)CC[C@@H](O)C[C@@H](O)CC(=O)O[C@H]1C)C[C@H](O)[C@H]2C(=O)O [Amphotericin B],"Rating (growth, 0-4 scale)",[1]; 0.5 μg/mL,2 (prominent growth or ˜50% of the growth control)
same,"Rating (growth, 0-4 scale)",[1]; 1.0 μg/mL,2 (prominent growth or ˜50% of the growth control)
same,"Rating (growth, 0-4 scale)",[1]; 2.0 μg/mL,1 (slight growth or ˜25% of the growth control)
same,"Rating (growth, 0-4 scale)",[1]; 100 μg/mL,1 (slight growth or ˜25% of the growth control)
"CCCCCCCCCCCCCCCC[n+]1ccccc1 [CPC, cetylpyridinium chloride]",mold growth on plate,[2],did not exhibit any mold growth
same,effect on the growth of Alternaria alternata,"[3]; CPC alone at 0.005%, 0.01%, 0.05%, 0.25% and 1.0%",most observable effect
benzalkonium chloride [BKC],effect on the growth of Alternaria alternata,[3]; BKC alone at 0.005% (concentration in the SINOFRESH product),little to no effect; also recorded: essentially inactive
same,effect on the growth of Alternaria alternata,[3]; BKC alone at concentrations of about 0.025% or above,some effect
